In one data set the test system is 28S rRNA. The data set can be described thus: chemical foot-printing of ribosomes prepared from HeLa cells (DMS, kethoxal). In kind it is binding. Conditions: 100 μM, DMS and kethoxal. As for the experimental part: Ribosomes prepared from HeLa cells were incubated with the small molecules (at a concentration of 100 μM), followed by treatment with chemical modifying agents (dimethyl sulfate [DMS] and kethoxal [KE]). Following chemical modification, rRNA was phenol-chloroform extracted, ethanol precipitated, analyzed in primer extension reactions using end-labeled oligonucleotides hybridizing to different regions of the three rRNAs and resolved on 6% polyacrylamide gels. The probes used for primer extension cover the entire 18S (7 oligonucleotide primers), 28S (24 oligonucleotide primers), and 5S (one primer) rRNAs. Controls in these experiments include DMSO (a control for changes in rRNA accessibility induced by DMSO), paromomycin (a marker for 18S rRNA binding), and anisomycin (a marker for 28S rRNA binding).

In data set [1] the test system is CFTR in a bronchial epithelial cell line harboring a nonsense codon at amino acid 1282 (W1282X). The data set can be described thus: CFTR function as cAMP-activated chloride channel, SPQ assay. In kind it is cell-based. Conditions: compound, cAMP stimulation. The procedure:
To address the effects of the nonsense-suppressing compounds on mRNAs altered in specific inherited diseases, a bronchial epithelial cell line harboring a nonsense codon at amino acid 1282 (W1282X) was treated with 3-[2-(4-Isopropyl-3-methyl-phenoxy)-acetylamino]-benzoic acid, sodium salt (20RM) and CFTR function was monitored as a cAMP-activated chloride channel using the SPQ assay (Yang et al., 1993, Hum Mol Genet. 2(8):1253-1261 and Howard et al., 1996, Nat Med. 2(4):467-469). […] No increase in fluorescence was observed when cells were not treated with compound or if the cells were not stimulated with cAMP.

Data set [2] concerns dystrophin in mouse primary skeletal muscle cultures derived from mdx mice. The data set can be described thus: dystrophin immunostaining in primary skeletal muscle cultures from mdx mice. In kind it is cell-based. The conditions noted are these: 20 μM, cells cultured for 10 days. The procedure:
Mouse primary skeletal muscle cultures derived from 1-day old mdx mice were prepared as described previously (Barton-Davis et al., 1999, J Clin Invest. 104(4):375-381). Cells were cultured for 10 days in the presence of 3-[2-(4-Isopropyl-3-methyl-phenoxy)-acetylamino]-benzoic acid, sodium salt (20 μM). Culture medium was replaced every four days and the presence of dystrophin in myoblast cultures was detected by immunostaining as described previously (Barton-Davis et al., 1999, J Clin Invest. 104(4):375-381). A primary monoclonal antibody to the C-terminus of the dystrophin protein (F19A12) was used undiluted and rhodamine conjugated anti-mouse IgG was used as the secondary antibody. The F19A12 antibody will detect the full-length protein produced by suppression of the nonsense codon. Staining was viewed using a Leica DMR micropscope, digital camera, and associated imaging software at the University of Pennsylvania.

For data set [3], the system named is luciferase reporter construct containing a UGA premature termination codon stably transfected in 293T Human Embryonic Kidney cells. The data set can be described thus: cell-based luciferase reporter assay (UGA premature termination codon). Conditions: for Activity: ranking combining potency (minimum concentration to produce protein) and efficacy (maximum protein produced), 293T cells, UGA luciferase reporter, gentamicin internal standard. The procedure: Melting points in Table 1 were obtained on an Electrothermal MeltTemp apparatus and are uncorrected. Activity measurements in Table 1 were performed in a cell-based luciferase reporter assay (as described in Section 4.2) comprising a luciferase reporter construct containing a UGA premature termination codon that was stably transfected in 293T Human Embryonic Kidney cells. Gentamicin, a small molecule known to allow readthrough of premature termination codons, was used as an internal standard. Activity measurements are based on the qualitative relation between the minimum concentration of compound required to produce a given protein in a cell (potency) and the maximum amount of protein produced by the cell (efficacy). Potency and efficacy activities are ranked as either extremely high, very high or significant. The combination of these activities is used to determine the activity ranking.
(§1) Two assays were developed for use in high throughput screens to identify small molecules that promote nonsense suppression. Each assay utilized luciferase because it is a functional reporter gene assay (light is only produced if the protein is functional) and it is extremely sensitive (Light intensity is proportional to luciferase concentration in the nM range). The first assay is a cell-based luciferase reporter assay and the second is a biochemical assay consisting of rabbit reticulocyte lysate and a nonsense-containing luciferase reporter mRNA. In the cell-based assay, a luciferase reporter construct containing a UGA premature termination codon was stably transfected in 293T Human Embryonic Kidney cells. In the biochemical assay, mRNA containing a UGA premature termination codon was used as a reporter in an in vitro translation reaction using rabbit reticulocyte lysate supplemented with tRNA, hemin, creatine kinase, amino acids, KOAc, Mg(OAc)2, and creatine phosphate. […] Synthetic mRNA was prepared in vitro using the T7 promoter and the MegaScript in vitro transcription kit (Ambion).
To determine whether compounds also function in vivo, a stable cell line harboring the UGA nonsense-containing luciferase gene was treated with selected compounds. Cells were grown in standard medium supplemented with 1% penicillin-streptomycin (P/S) and 10% fetal bovine serum (FBS) to 70% confluency and split 1:1 the day before treatment. On the following day, cells were trypsinized and 40,000 cells were added to each well of a 96-well tissue culture dish. Serial dilutions of each compound were prepared to generate a six-point dose response curve spanning 2 logs (30 μM to 0.3 μM). The final concentration of the DMSO solvent remained constant at 1% in each well. Cells treated with 1% DMSO served as the background standard, and cells treated with gentamicin served as a positive control.
(A reporter such as luciferase makes a cellular process visible.)

The subject of data set [4] is nonsense-containing luciferase reporter mRNA (UGA premature termination codon) in rabbit reticulocyte lysate. The data set can be described thus: biochemical luciferase nonsense suppression assay (in vitro translation). The conditions noted are these: internal standard.
From the text: as §1

Data set [5] concerns tripeptidyl-peptidase 1 (TPP-I) in patient-derived LINCL cell line. Conditions: patient-derived cell line compound heterozygous for Arg208Stop and another nonsense mutation; maximal; cited from earlier work.
In data set [6] the test system is dystrophin premature stop codon in mdx mice. Conditions: cited from earlier work.

The term melting point denotes the temperature of the solid-liquid transition.

In turn, `Cc1cc(OCC(=O)Nc2cccc(C(=O)[O-])c2)ccc1C(C)C.[Na+]` [Compound 46, 3-[2-(4-Isopropyl-3-methyl-phenoxy)-acetylamino]-benzoic acid, Sodium salt] showed a melting point of 188 to 189 °C. In the data set on 28S rRNA, the “accessibility of chemical modifying agents to rRNA nucleotides (foot-printing)” value was “alters the accessibility of the chemical modifying agents to specific nucleotides in the 28S rRNA”. Moreover, the “CFTR function (SPQ fluorescence, chloride channel activity)” value in data set [1] was “increase chloride channel activity”. For the same molecule, the “full-length dystrophin expression (immunostaining)” value in data set [2] was “EXPRESS FULL-LENGTH […]”.

Molecule `O=C(COc1ccc([N+](=O)[O-])cn1)Nc1cccc(C(=O)O)c1` [Compound 71, 3-[2-(5-Nitro-pyridin-2-yloxy)-acetylamino]-benzoic acid] yielded a melting point of 233 to 236 °C. Also, in data set [3], the Activity stood at 0.

Regarding `O=C(COc1ccc(COCCCCN2C(=O)c3ccccc3C2=O)cc1)Nc1cccc(C(=O)O)c1` [Compound 73, 3-(2-{4-[4-(1,3-Dioxo-1,3-dihydro-isoindol-2-yl)-butoxymethyl]-phenoxy}-acetylamino)-benzoic acid], the melting point lay within 95 to 100 °C. Also, the Activity in data set [3] amounted to 0.

For `Cc1cc(C)nc(SCc2ccc(OCC(=O)Nc3cccc(C(=O)O)c3)cc2)n1` [Compound 74, 3-{2-[4-(4,6-Dimethyl-pyrimidin-2-ylsulfanylmethyl)-phenoxy]-acetylamino}-benzoic acid], the melting point is 194 to 196 °C. Further, in data set [3], the Activity amounted to 0.

`N#CCc1ccc(OCC(=O)Nc2cccc(C(=O)O)c2)cc1` [Compound 77, 3-[2-(4-Cyanomethyl-phenoxy)-acetylamino]-benzoic acid] yielded a melting point of 245 to 247 °C. Moreover, the Activity in data set [3] is 0.

As to `O=C(COc1ccc(Cc2nnc(-c3ccccc3)o2)cc1)Nc1cccc(C(=O)O)c1` [Compound 80, 3-{2-[4-(5-Phenyl-[1,3,4]oxadiazol-2-ylmethyl)-phenoxy]-acetylamino}-benzoic acid], the melting point is 207 to 210 °C. For the same molecule, the Activity in data set [3] stood at 0.

`O=C(O)c1cccc(N2CCC(Oc3ccc([N+](=O)[O-])cc3)C2=O)c1` (stereo not drawn) [Compound 81, 3-[3-(4-Nitro-phenoxy)-2-oxo-pyrrolidin-1-yl]-benzoic acid]: the melting point lay within 178 to 180 °C. Further, the Activity in data set [3] stood at 0.

`COc1ccc(OC2CCN(c3cccc(C(=O)O)c3)C2=O)cc1` (stereo not drawn) [Compound 82, 3-[3-(4-Methoxy-phenoxy)-2-oxo-pyrrolidin-1-yl]-benzoic acid] gave a melting point of 198 to 201 °C. Further, the Activity in data set [3] turned out to be 0.

With `CC(C)(C)c1ccc(OC2CCN(c3cccc(C(=O)O)c3)C2=O)cc1` (stereo not drawn) [Compound 88, 3-[3-(4-tert-Butyl-phenoxy)-2-oxo-pyrrolidin-1-yl]-benzoic acid], the melting point was 238 to 241 °C. Also, in data set [3], the Activity worked out at 0.

Take gentamicin: the luciferase activity entry in data set [3] (cell-based assay, internal standard) is reported as “increased luciferase activity”; in data set [4] it was “increased luciferase activity”. In data set [5], the TPP-I restored result was “approximately 7 % of normal levels of TPP-I”.

In the case of gentamicin sulfate, in data set [6], the “suppression of translational termination at premature stop codon (dystrophin)” value is given as “full length dystrophin”.
